Assay results reported in patent publication US8933031B2, “Polypeptide inhibiting angiogenesis and application thereof” (Shanghai First People's Hospital, priority 2008, dated 2015).

Assays:
[1] = tested on: corneal angiogenesis induced by VEGF; assay type: in vivo
Excerpt: 1.2 Experimental Animal and Material: Healthy, male C57B1/6 mice of 5-6 weeks old weighing about 20 g were purchased from Laboratory Animal Center of Chinese Academy of Sciences. Sucrose octasulfate-aluminum complex was purchased from Sigma-Aldrich, USA. PolyHEMA (poly(2-hydroxyethylmethacylate)) was purchased from Aldrich, USA. And human recombinant VEGF165 was purchased from SIGMA, USA.
1.2 Preparation of Model and Intervention Test: 12% PolyHEMA in an ethanol solution was mixed with an equal volume of normal saline solution containing sucrose octasulfate-aluminum complex powder, thus forming blank slow-release particles with a volume of 0.35 mm*0.35 mm*0.20 mm. 160 ng of VEGF and different amounts (0 μg, 1.0 μg, 2.0 μg) of the small peptides were added into said particles. The resultant products were stored at −20° C., ready for use. The above operations were done under a sterile condition. Thirty C57B1/6 mice (30 eyes) were randomly grouped into a control group (VEGF group), VEGF+1.0 μg AU6 group, and VEGF+2.0 μg AU6 group, with 10 eyes for each group. Under a sterile condition, 23G syringe needle was used to perform blunt separation between the layers of the corneal stroma in the experimental eyes, so as to form a pouch of 0.5 mm*0.5 mm. The particles containing 160 ng VEGF and different amounts of small peptides were implanted into the pouches in the ocular cornea in the mice of each group, and were made to have a distance of 0.6-0.8 mm from limbus. After operation, 0.5% aureomycin oculentum was applied to the eyes to prevent infection and reduce irritation. Photos were obtained 7 days after operation to observe the growth of newly generated blood vessel in the cornea, and a histopathological examination was performed concurrently.
1.3 Quantitative Measurement of Corneal Neovascularization: the length of the new blood vessels grown from limbus was measured 7 days after operation. The area of the new blood vessel was calculated based on the longest blood vessel which had less continuous bending and which grew toward the slow release particles. Formula is as follows: Area (mm^2)=[…]*π*VL (mm)*CN*0.4 (mm), wherein VL is the length of the longest new blood vessel grown from limbus to the cornea (maximal vessel length), and CN represents the clock hours of corneal neovascularization (the cornea is dividing into clock hours).
1.4 Qualitative Observation of Corneal Neovascularization: Each group of animals was sacrificed by excessive anaesthesia 7 days after operation. The eyeballs were obtained under a sterile condition, and fixed in 10% neutral formaldehyde, and then subjected to histopathological examination. The samples were embedded within paraffin and cut into 3 μm sections, HE stained, and observed under light microscope.
1.5 Statistical Analysis: The experimental data were represented as x±s. The length of the longest new blood vessel in cornea, clock hours and area for each group were compared by one-way ANOVA. P<0.05 indicates statistical significance.

[2] = tested on: chick embryo chorioallantoic membrane; assay type: in vivo; settings: 10 μg or 50 μg AU6 on filter paper, 2 days, vs PBS control group
Description: 1.2 Preparation of Model and Intervention Test: The chick fertile eggs of 1-2 days old were randomly grouped into 3 groups, which were respectively a control group, a 10 μg AU6 intervention group, and a 50 μg AU6 intervention group, with 9-15 eggs for each group. The surface of the fertile eggs was cleansing with tap water, and then the eggs were soaked in 0.2% benzalkonium bromide (bromo-geramine) solution for 5-10 minutes. The eggs were placed with the blunt end upward, and hatched in an incubator under 37° C. and 60-70% humidity. The eggs were overturned for at least two times per day, and were hatched for 5 days with 24 hours as one day. Under sterile condition, a small hole of about 1-2cm^2 was created at the blunt end (air chamber end) with a nipper. […] Whatman filter papers with a diameter of 5mm were used as a sample carrier, each of which adsorbed 5 μl of PBS solution containing 0 μg, 10 μg or 50 μg of AU6. After air drying, the papers were placed into the center of the chorioallantoic membrane. […]
1.3 Counting the Number of Micrangiums in the Chorioallantoic Membrane: the adhesive tape was removed, and the micrangiums newly generated on the chorioallantoic membrane were observed. The number of micrangiums (with diameter no greater than 10 μm) within 5 mm around the filter paper for each group was counted under stereomicroscope. […]

[3] = tested on: retinal neovascularization induced by anoxia; assay type: in vivo; settings: intravitreal AU6 (5 μg, 10 μg) 12 days after birth, read 17 days after birth, vs model-treated group
Description: 1.1 Materials and Main Devices: Healthy, neonatal C57B1/6 mice, 7 days age, weighing about 4 g were purchased from Laboratory Animal Center of Chinese Academy of Sciences. The sex of the mice was not limited. FITC-dextran (molecular weight about 2*10^6) was purchased from SIGMA, USA.
1.2 Preparation of Model and Intervention Test: Neonatal mice of 10 nests were randomly grouped into 5 groups, which respectively were oxygen group, oxygen plus PBS group, oxygen plus 5 μg AU6 group, oxygen plus 10 μg AU6 group, and control group, with 10-11 mice for each group. Seven days after birth, except the control group, all of the other groups of mice were placed in an airproof drying cabinet together with their mother mice of the same nest. Wet pure oxygen was introduced into the drying cabinet, and the oxygen concentration in volume was maintained as 75%±5%. The oxygen concentration was measured every 3-6 hours by using oxygen meter. The control group was incubated normally in air. Twelve days after birth, 0.5 μl PBS solution containing respectively 0, 5 μg, and 10 μg AU6 were injected into the vitreous chambers of the mice in the oxygen plus PBS group and in the oxygen plus AU6 group (5 μg, and 10 μg).
1.3 FITC-dextran Retinal Angiography and Flat-mounts: Seventeen days after birth, 50 mg/ml FITC-dextran solution were perfused into the left ventricle of mice in each group. Then the eyeballs immediately were obtained, fixed in paraformaldehyde solution for 5-24 hours at 4° C. And then the retinas were isolated and flat-mounted. The morphological change of the retinal blood vessel was observed under fluorescence microscope.
1.4 Quantitative Measurement of Retinal Neovascularization: The animals in each group were sacrificed by excessive anaesthesia 17 days after birth. The eyeballs were obtained, and fixed in 10% neutral formaldehyde, and then subjected to histopathological examination. […] The numbers of the nucleus of the vascular endothelial cells which broke through the retinal inner limiting membrane were counted under light microscope. […]

[4] = Water solubility of synthesized polypeptide; assay type: physicochemical; settings: white powder
[5] = 160 ng VEGF + 1.0 or 2.0 μg AU6 slow-release particles, 7 days after operation, vs control group
[6] = 7 days after operation, AU6 intervention group

For “YRGKKA ((1)..(6) Peptide AU6 for inhibiting angiogenesis)”, the “clock hours of corneal neovascularization” value [1, 5] was “significant decrease”, the “longest blood vessel length of the new blood vessel” value [1, 5] was “significant decrease” and the “area of blood vessel” value ([1]; 160 ng VEGF + 1.0 or 2.0 μg AU6 slow-release particles, 7 days after operation, vs control group, calculated from VL and CN) was “significant decrease”. The “blood capillary lumens in corneal stroma (HE stained sections)” value [1, 6] was “very few”, the “oedema in the corneal tissue (HE stained sections)” value [1, 6] was “no obvious oedema” and the “toxicity to each layer of corneal tissues” value ([1]; mouse, in vivo) was “not observed”. For the same substance, the “numbers of micrangiums within 5 mm around the filter paper” value [2] was “significantly less”, the “neovascular clusters (FITC-dextran retinal flat-mounts)” value [3] was “reduced” and the “non-perfusion area (FITC-dextran retinal flat-mounts)” value [3] was “narrowed”. For the same substance, the “nucleus of vascular endothelial cells which broke through the inner limiting membrane” value [3] was “obviously less” and the water solubility [4] was “good”.
